Assay results from patent US20260083865A1, “PROSTATE SPECIFIC MEMBRANE ANTIGEN (PSMA) LIGANDS AND USE THEREOF” (priority 2022, published 2026).
Where two headings read alike, the source gives them in different places. Numbered stars: 1 amine (or outer) side, 2 acyl side, 3 side chain; on linkers, the order of the positions; unused ones are H or OH. Bridge positions count the residues as written; N and C are the ends. Square brackets hold non-standard residues; d marks the D form. Side chains are listed from the residue outwards. Peptide text beside a SMILES is read from it. * marks the point of attachment. DOTA = O=C(O)CN1CCN(CC(=O)O)CCN(CC(=O)*)CCN(CC(=O)O)CC1; Phe(4-Cl) = N[C@@H](Cc1ccc(Cl)cc1)C(=O)O; Arg(Me2s) = CN=C(NC)NCCC[C@H](N)C(=O)O; NMeF = CN[C@@H](Cc1ccccc1)C(=O)O; X1 = O=C(CC1CCN([*:1])CC1)[*:2]; Lys(Me) = CNCCCC[C@H](N)C(=O)O; Tle = CC(C)(C)[C@H](N)C(=O)O; AEEA = NCCOCCOCC(=O)O; Aib = CC(C)(N)C(=O)O; βAla = NCCC(=O)O

Key:
[1] = biological target: T1, PSMA-expressing C4-2 cells (Homo sapiens, UniProt Q04609); test: FACS binding assay (competition with 50 nM PSM-0183); conditions: read-out: pIC50 [C4-2] CAT (converted)
T1 construct: PSMA-expressing C4-2 cells (ATCC, Cat. No. CRL-3314) were cultured in RPMI-1640; host or cells: C4-2 cells
T1 sequence (Q04609 whole entry): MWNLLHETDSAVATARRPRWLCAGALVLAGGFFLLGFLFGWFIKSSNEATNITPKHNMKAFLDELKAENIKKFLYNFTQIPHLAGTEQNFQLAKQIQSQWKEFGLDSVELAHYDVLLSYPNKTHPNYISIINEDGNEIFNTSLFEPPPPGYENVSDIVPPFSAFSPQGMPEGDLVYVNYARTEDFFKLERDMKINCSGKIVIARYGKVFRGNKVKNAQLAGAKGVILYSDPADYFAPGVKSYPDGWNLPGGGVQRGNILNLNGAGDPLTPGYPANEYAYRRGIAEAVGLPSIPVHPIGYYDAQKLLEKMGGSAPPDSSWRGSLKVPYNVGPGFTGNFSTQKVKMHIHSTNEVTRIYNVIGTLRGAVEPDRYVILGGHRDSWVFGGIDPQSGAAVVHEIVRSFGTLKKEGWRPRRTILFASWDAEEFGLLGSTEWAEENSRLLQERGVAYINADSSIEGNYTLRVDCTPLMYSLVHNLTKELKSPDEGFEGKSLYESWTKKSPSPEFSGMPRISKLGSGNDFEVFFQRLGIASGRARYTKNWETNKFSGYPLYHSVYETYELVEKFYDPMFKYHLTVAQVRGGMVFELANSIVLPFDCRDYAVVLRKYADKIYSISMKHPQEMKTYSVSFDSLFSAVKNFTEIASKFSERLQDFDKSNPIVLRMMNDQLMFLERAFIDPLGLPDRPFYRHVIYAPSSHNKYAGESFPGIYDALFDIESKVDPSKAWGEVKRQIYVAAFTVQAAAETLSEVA
Summary of the method: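 Competition format: fluorescent tracer PSM-0183 (50 nM) displaced from PSMA on C4-2 cells by a test compound titration over 1 h at 4 °C. Bound tracer was quantified as flow-cytometric AF488 median fluorescence after washing. Four-parameter logistic fits of MFI data gave IC50 and pIC50.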

[2] = biological target: T2, Fc-fusion protein of human PSMA (hPSMA-Fc) (Homo sapiens, UniProt Q04609); test: Surface plasmon resonance assay (Biacore T200, single cycle kinetic); type: binding; conditions: hPSMA-Fc, 25° C., read-out: pKD CAT (converted)
T2 construct: purchased Acro Biosystems PSA-H5264
T2 sequence (Q04609 44-750 limits assumed): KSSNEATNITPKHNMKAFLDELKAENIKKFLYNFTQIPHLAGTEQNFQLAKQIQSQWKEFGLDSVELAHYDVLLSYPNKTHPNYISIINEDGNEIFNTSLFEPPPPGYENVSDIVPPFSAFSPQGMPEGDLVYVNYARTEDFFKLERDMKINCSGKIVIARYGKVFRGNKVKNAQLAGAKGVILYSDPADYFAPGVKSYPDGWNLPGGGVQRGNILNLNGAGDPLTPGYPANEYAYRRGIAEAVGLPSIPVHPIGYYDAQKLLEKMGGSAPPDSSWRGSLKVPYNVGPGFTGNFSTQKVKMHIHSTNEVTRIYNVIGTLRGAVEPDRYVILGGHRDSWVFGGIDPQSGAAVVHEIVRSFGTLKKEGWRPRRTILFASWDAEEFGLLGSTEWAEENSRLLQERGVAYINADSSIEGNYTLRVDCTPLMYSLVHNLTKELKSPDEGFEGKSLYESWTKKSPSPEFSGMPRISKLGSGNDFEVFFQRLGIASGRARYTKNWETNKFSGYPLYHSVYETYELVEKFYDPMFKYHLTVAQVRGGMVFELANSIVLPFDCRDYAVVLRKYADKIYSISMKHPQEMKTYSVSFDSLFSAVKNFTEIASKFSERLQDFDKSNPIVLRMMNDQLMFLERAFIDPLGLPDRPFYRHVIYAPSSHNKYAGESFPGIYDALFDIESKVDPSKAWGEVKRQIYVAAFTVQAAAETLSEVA
Summary of the method: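 KD, expressed as pKD, came from 1:1 Langmuir fits of reference- and buffer-blank-subtracted SPR data. The runs were single-cycle kinetics at 25° C in HBST/0.1% DMSO over human PSMA-Fc, captured to ~1000 RU on a peptide-coated CM5 surface and regenerated with 10 mM glycine pH 1.5.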

[3] = pIC50 category of FACS binding, C4-2 cells
[4] = pKD category for PSMA SPR activity assay

Compound | IC50 [1, 3] [nM] | Kd [2, 4] [nM] | other results
C[C@@H](O)[C@H](NC(=O)[C@@H](NC(=O)[C@@H]1CSSC[C@H](NC(=O)[C@H](Cc2ccccc2)NC(=O)C(C)(C)NC(=O)[C@@H](NC(=O)CC2CCN(C(=O)CN3CCN(CC(=O)O)CCN(CC(=O)O)CCN(CC(=O)O)CC3)CC2)C(C)(C)C)C(=O)N[C@@H](CCCCN)C(=O)N[C@@H](CCCNC(=N)N)C(=O)NC(C)(C)C(=O)N[C@@H](CC(N)=O)C(=O)N1)C(C)(C)C)C(N)=O [PSM-0198, DOTA-Cmp-Tle-Aib-Phe-[Cys-Lys-Arg-Aib-Asn-Cys]-Tle-Thr-NH2] ({DOTA}-[X1][Tle][Aib]FCKR[Aib]NC[Tle]T-NH2; disulfide 5-10) |  |  | IC50 ([1]; FACS binding, C4-2 cells, competition with 50 nM PSM-0183, category): 1260 to 3160 nM; Kd ([2]; SPR, single cycle kinetic, category): 126 to 501 nM
CC(=O)N[C@H](C(=O)N[C@@H](C)C(=O)N(C)[C@@H](Cc1ccccc1)C(=O)N[C@H]1CSSC[C@@H](C(=O)N[C@H](C(=O)N[C@H](C(N)=O)[C@@H](C)O)C(C)(C)C)NC(=O)[C@H](CC(N)=O)NC(=O)C(C)(C)NC(=O)[C@H](CCCNC(=N)N)NC(=O)[C@H](CCCCN)NC1=O)[C@@H](C)O [PSM-0319, Ac-Thr-Ala-Nmf-[Cys-Lys-Arg-Aib-Asn-Cys]-Tle-Thr-NH2] (Ac-TA[NMeF]CKR[Aib]NC[Tle]T-NH2; disulfide 4-9) |  |  | IC50 ([1]; FACS binding, PSMA-expressing C4-2 cells, pIC50 category): < 200 nM; Kd ([2]; PSMA SPR assay, pKD category): 12.6 to 126 nM
CC(=O)N[C@H](C(=O)NC(C)(C)C(=O)N[C@@H](Cc1ccccc1)C(=O)N[C@H]1CSSC[C@@H](C(=O)N[C@H](C(=O)N[C@H](C(=O)N[C@@H](CC(=O)O)C(N)=O)[C@@H](C)O)C(C)(C)C)NC(=O)[C@H](CC(N)=O)NC(=O)[C@H](C)NC(=O)[C@H](CCCNC(=N)N)NC(=O)[C@H](CCC(N)=O)NC1=O)[C@@H](C)O [PSM-0435, Ac-Thr-Aib-Phe-[Cys-Gln-Arg-Ala-Asn-Cys]-Tle-Thr-Asp-NH2] (Ac-T[Aib]FCQRANC[Tle]TD-NH2; disulfide 4-9) | < 200 | 12.6 to 126 | 
C/N=C(/NC)NCCC[C@@H]1NC(=O)[C@H](CCCCNC)NC(=O)[C@@H](NC(=O)[C@H](Cc2ccc(Cl)cc2)NC(=O)C(C)(C)NC(=O)[C@@H](NC(=O)CC2CCN(C(=O)CN3CCN(CC(=O)O)CCN(CC(=O)O)CCN(CC(=O)O)CC3)CC2)[C@@H](C)O)CSSC[C@@H](C(=O)N[C@H](C(=O)N[C@H](C(N)=O)[C@@H](C)O)C(C)(C)C)NC(=O)[C@H](CC(N)=O)NC(=O)C(C)(C)NC1=O [PSM-0499, DOTA-Cmp-Thr-Aib-Pcf-[Cys-Lys(Me)-Egd-Aib-Asn-Cys]-Tle-Thr-NH2] ({DOTA}-[X1]T[Aib][Phe(4-Cl)]C[Lys(Me)][Arg(Me2s)][Aib]NC[Tle]T-NH2; disulfide 5-10) | < 200 | < 12.6 | 
CC(=O)N[C@H](C(=O)NC(C)(C)C(=O)N[C@@H](Cc1ccccc1)C(=O)N[C@H]1CSSC[C@@H](C(=O)N[C@H](C(=O)N[C@H](C(N)=O)[C@@H](C)O)C(C)(C)C)NC(=O)[C@H](CC(N)=O)NC(=O)[C@H](CCCCNC(=O)COCCOCCNC(=O)CN2CCN(CC(=O)O)CCN(CC(=O)O)CCN(CC(=O)O)CC2)NC(=O)[C@H](CCCNC(=N)N)NC(=O)[C@H](CCCCN)NC1=O)[C@@H](C)O [PSM-0401, Ac-Thr-Aib-Phe-[Cys-Lys-Arg-Lys(DOTA-020c)-Asn-Cys]-Tle-Thr-NH2] (Ac-T[Aib]FCKRK([AEEA-DOTA])NC[Tle]T-NH2; disulfide 4-9) | < 200 | < 12.6 | 

Further lines, with some results ahead:

IC50 [1, 3] [nM] | Kd [2, 4] [nM] | Compound | other results
< 200 | < 12.6 | CC(=O)N[C@H](C(=O)NC(C)(C)C(=O)N[C@@H](Cc1ccccc1)C(=O)N[C@H]1CSSC[C@@H](C(=O)N[C@H](C(=O)N[C@H](C(N)=O)[C@@H](C)O)C(C)(C)C)NC(=O)[C@H](CC(N)=O)NC(=O)[C@H](C)NC(=O)[C@H](CCCNC(=N)N)NC(=O)[C@H](CCCCN)NC1=O)[C@@H](C)O [PSM-0552, Ac-Thr-Aib-Phe-[Cys-Lys-Arg-Ala-Asn-Cys]-Tle-Thr-NH2] (Ac-T[Aib]FCKRANC[Tle]T-NH2; disulfide 4-9) | 
< 200 | < 12.6 | CC(=O)N[C@H](C(=O)NC(C)(C)C(=O)N[C@@H](Cc1ccc(Cl)cc1)C(=O)N[C@H]1CSSC[C@@H](C(=O)N[C@H](C(=O)NCCC(N)=O)C(C)(C)C)NC(=O)[C@H](CC(N)=O)NC(=O)C(C)(C)NC(=O)[C@H](CCCNC(=N)N)NC(=O)[C@H](CCCCN)NC1=O)[C@@H](C)O [PSM-0514, Ac-Thr-Aib-Pcf-[Cys-Lys-Arg-Aib-Asn-Cys]-Tle-Bal-NH2] (Ac-T[Aib][Phe(4-Cl)]CKR[Aib]NC[Tle][βAla]-NH2; disulfide 4-9) | 
< 200 | < 12.6 | C=C1N[C@@H](CCCCN)C(=O)N[C@@H](CCCNC(=N)N)C(=O)NC(C)(C)C(=O)N[C@@H](CC(N)=O)C(=O)N[C@H](C(=O)N[C@H](C(=O)N[C@H](C(=O)NCCOCCOCC(=O)N[C@H](CCCCNC(=O)CN2CCN(CC(=O)O)CCN(CC(=O)O)CCN(CC(=O)O)CC2)C(N)=O)[C@@H](C)O)C(C)(C)C)CSSC[C@@H]1NC(=O)[C@H](Cc1ccccc1)NC(=O)C(C)(C)NC(=O)[C@@H](NC(C)=O)[C@@H](C)O [PSM-0529, Ac-Thr-Aib-Phe-[Cys-Lys-Arg-Aib-Asn-Cys]-Tle-Thr-O2Oc-lys(DOTA)-NH2] | 
